From PubChem BioAssay AID179 (DTP/NCI, 2004)
Active and inactive are the calls of the source.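 Rule for the calls: active = compounds giving half or more protection of infected cells from virus-caused growth loss, again on retest; inactive = the rest.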 Where a SMILES comes first, the peptide text is derived from it. [ ]: non-standard residue; d: D form. The star is where a group is joined. ξ: configuration not given here. Abu = CC[CH](N)C(=O)O; Boc = CC(C)(C)OC(=O)*; ξV = CC(C)C(N)C(=O)O; OBn = c1ccc(CO*)cc1

Test system: CEM cells HIV-1 protection, formazan growth assay
Assay: NCI AIDS Antiviral Assay
Conditions: for IC50: measured here: growth of uninfected CEM cells
Procedure: The ability of compounds to protect human CEM cells from HIV-1 infection is measured as a screen for new compounds capable of inhibiting the HIV virus. Five concentrations of drug were tested on uninfected and infected cells and cell growth was measured using a soluble formazan assay. […] Compounds that provided at least 50% protection were retested. Compounds that provided at least 50% protection on retest were listed as moderately active. Compounds that reproducibly provided 100% protection were listed as confirmed active. […] Note that the inability to provide protection could be due to toxicity.

## O=C(O)c1c2c(cc3c1CC1(Cc4cc5c(cc4C1=O)CCC5)C3)CCC2 (centres undefined)
  EC50: > 200 µM
  IC50: 72.4 µM

## CCOC(=O)C(=Cc1ccc(Oc2ccccc2)cc1)C(=O)OCC
  EC50: > 11.2 µM
  IC50: > 11.2 µM

## Clc1ccc(C2=NCON=C2c2ccc(Cl)cc2)cc1
  outcome: inactive

## Cc1cc2c(C=O)[nH]nc2c(C#N)c1C
  outcome: inactive

## c1ccc2c(c1)ccn2CCc1c[nH]c2ccccc12
  EC50: > 200 µM
  IC50: > 200 µM

## O=c1[nH]c2cc([N+](=O)[O-])ccc2nc1/C(=N/Nc1ccccc1)C(O)c1ccc(Cl)cc1Cl (centres undefined)
  EC50: > 269 µM
  IC50: 148 µM

## CC1=C(O)C(=O)C=C2C1=CC=C1[C@@]2(C)CC[C@@]2(C)C3C[C@@H](C)C(=O)[C@@H](O)[C@]3(C)CC[C@]12C (some centres undefined)
  EC50: > 1.26 µM
  IC50: 0.2 µM

## COC(=O)C12N=NN(c3ccccc3)C1(C(=O)OC)C1CCC2C1 (centres undefined)
  EC50: > 200 µM
  IC50: > 200 µM

## C=C(C)[C@@H]1CC[C@]2(C(=O)O)CC[C@]3(C)[C@H](CC[C@@H]4[C@@]5(C)CC[C@H](O)C(C)(C)[C@@H]5CC[C@]43C)[C@@H]12
  EC50: > 200 µM
  IC50: 20.9 µM

## NC1=NNC(=O)C1N=Nc1ccc(S(=O)(=O)Nc2nccs2)cc1 (centres undefined)
  EC50: > 200 µM
  IC50: > 200 µM

## CN1C(=O)N(c2ccccc2)C2(CCN(CC3COc4ccccc4O3)CC2)C1=O (centres undefined)
  EC50: > 200 µM
  IC50: > 200 µM

## CN1C(=O)C(c2c[nH]c3ccccc23)N(C)C(=O)C1c1c[nH]c2ccccc12 (centres undefined)
  EC50: > 200 µM
  IC50: > 200 µM

## O=S(=O)(F)c1ccc(Cl)cc1C[P+](c1ccccc1)(c1ccccc1)c1ccccc1
  EC50: > 200 µM
  IC50: 87.1 µM

## CCc1nc2ccc(C(F)(F)F)cc2[nH]c1=O
  EC50: > 200 µM
  IC50: 105 µM

## Cc1cc(=O)c2c(O)cc(O)c(C3CCN(C)CC3O)c2o1 (centres undefined)
  EC50: > 1020 µM
  IC50: 17 µM

## Cc1cc(=O)[nH]c(NN2C(Cl)C(=O)C2c2ccc([N+](=O)[O-])cc2)n1 (centres undefined)
  EC50: > 53.7 µM
  IC50: 8.51 µM

## O=C1NC2(CCCCC2)C2CCCCC(O)C12 (centres undefined)
  outcome: inactive

## O=C1C(C(c2ccccc2)N2CCOCC2)=C(O)C(c2ccccc2)N1c1ccccc1 (centres undefined)
  outcome: inactive

## CN1CC(C(=O)NC2(C)OC3(O)C4CCCN4C(=O)C(Cc4ccccc4)N3C2=O)C=C2c3cccc4[nH]cc(c34)CC21 (centres undefined)
  EC50: > 61.7 µM
  IC50: 28.8 µM

## O=P(O)(O)C(NCC(O)CN1CCOCC1)P(=O)(O)O (centres undefined)
  EC50: > 200 µM
  IC50: > 200 µM

## CN(C)C=Nc1nncc2n[nH]nc12
  EC50: > 200 µM
  IC50: > 200 µM

## N#Cc1c(O)c(C=Nc2ccc(Cl)cc2)c(=O)n2c1[nH]c1ccccc12
  EC50: > 100 µM
  IC50: > 100 µM

## C=CC(C)(O)CN(C=O)Cc1ccccc1 (centres undefined)
  EC50: > 589 µM
  IC50: > 589 µM

## CCOC1CC2OC(=O)C1C=C2C(=O)OC (centres undefined)
  outcome: inactive

## Cc1cc(N(CCC#N)CCC#N)ccc1/C=C(\NC(=O)/C=C/c1ccccc1)C(N)=O
  outcome: inactive

## CC(C)C(F)(C(N)=O)C(=O)O (centres undefined)
  EC50: > 200 µM
  IC50: > 200 µM

## Cc1ccc(S(=O)(=O)N2CCn3ncc(C#N)c32)cc1
  EC50: > 186 µM
  IC50: > 186 µM

## CCOC(=O)c1cn2c(ccc3sc4ccccc4c(=O)c32)n1
  EC50: > 200 µM
  IC50: > 200 µM

## CC(C)(C)C(=O)/C=C/c1ccc(Br)cc1
  outcome: inactive

## NC(=O)c1cc2ccccc2[n+](Cc2ccc(F)cc2)c1
  EC50: 200 µM
  IC50: 339 µM

## O=S(=O)(c1ccccc1)C1CN(Cc2ccccc2)CCN(Cc2ccccc2)C1
  outcome: inactive

## O=C(Nc1cccc(Cc2cccc(NC(=O)c3ccccc3)c2)c1)c1ccccc1
  EC50: > 9.33 µM
  IC50: > 9.33 µM

## CCCN(CCC)C(=S)S
  EC50: > 200 µM
  IC50: > 200 µM

## CN1C(=O)C(O)C[C@@H]1c1ccccc1 (some centres undefined)
  outcome: inactive

## O=C1N(Cc2ccccc2)CC(O)CN1Cc1ccccc1
  EC50: > 200 µM
  IC50: 174 µM

## NC(N)=N/N=C(/c1nc2ccc([N+](=O)[O-])cc2[nH]c1=O)C(O)c1ccco1 (centres undefined)
  EC50: > 251 µM
  IC50: 141 µM

## COc1cccc(/C=N/[N-]C(=O)c2ccncc2)c1[O-].[OH3+].[Zn+2]
  EC50: > 2.95 µM
  IC50: > 2.95 µM

## OCC1NC(COC2OC(CO)C(O)C(O)C2O)C(O)C(O)C1O (centres undefined)
  outcome: inactive

## O=C(CC(=O)Nc1ccccc1O)Nc1ccccc1O
  EC50: > 447 µM
  IC50: 22.4 µM

## CC1=CC(C)(C)SC(SSSC2=NC(C)=CC(C)(C)S2)=N1
  EC50: > 200 µM
  IC50: 38.9 µM

## CCOc1ccc(NC(=O)/C(=N\NC(C)(C)C)C2C(=O)Nc3ccccc3S2=O)cc1 (centres undefined)
  EC50: > 42.7 µM
  IC50: > 42.7 µM

## COC(=O)C1Cc2c([nH]c3ccccc23)C(c2ccccc2O)N1Cc1ccccc1 (centres undefined)
  outcome: inactive

## O=C(/C=C/c1ccccc1)CC(=O)/C=C/c1ccccc1
  EC50: > 200 µM
  IC50: 30.9 µM

## O=c1oc2ccccc2cc1-c1ccccc1
  EC50: > 162 µM
  IC50: > 162 µM

## CC(C)=C1C(=O)C[C@@]2(C)C[C@H]3OC3(C)CC/C=C(/C)CCC12 (some centres undefined)
  outcome: inactive

## O=C(Nc1cccc([N+](=O)[O-])c1)C(=O)C(C(=O)c1ccccc1F)C1OC(=O)C2C=CC=CC21 (centres undefined)
  EC50: > 282 µM
  IC50: 4.07 µM

## O=P1(c2ccccc2)Nc2cc(Cl)c(Cl)cc2N1
  EC50: > 200 µM
  IC50: 64.6 µM

## O=c1c(-c2cccc(O)c2O)coc2cc(OC3OC(CO)C(O)C(O)C3O)ccc12 (centres undefined)
  EC50: > 200 µM
  IC50: > 200 µM

## CC(C)C(NC(=O)CNC(=O)OC(C)(C)C)C(=O)NCC(=O)OCc1ccccc1 (stereo not drawn) (Boc-Gly-[ξV]-Gly-OBn)
  EC50: > 200 µM
  IC50: > 200 µM

## O=C1c2ccccc2Sc2ccccc2N1C(=O)C1CC1
  EC50: 39.8 µM
  IC50: 55 µM

## CN=S(=O)(C[C@]1(O)CC2OC1C1OC(C)(C)OC21)c1ccccc1 (some centres undefined)
  EC50: > 708 µM
  IC50: > 708 µM

## OC(C/C=N/Nc1ccccc1)(C(F)(F)Cl)C(F)(F)Cl
  EC50: > 200 µM
  IC50: 10 µM

## CCOC(=O)/C=C/c1ccc2c(c1)OC(CO)[C@H](c1ccc(O)c(OC)c1)O2 (some centres undefined)
  EC50: > 339 µM
  IC50: 77.6 µM

## CN(C)c1ccc(C=C2c3ccccc3-c3ccccc32)cc1
  EC50: > 17.4 µM
  IC50: > 17.4 µM

## COC1OC(CO)C2OC12 (centres undefined)
  EC50: > 200 µM
  IC50: > 200 µM

## Cc1cc(C)c2c(c1)CC2N (centres undefined)
  EC50: > 1350 µM
  IC50: 490 µM

## CCOC(=O)/C=C\[C@H]1OC(C)(C)O[C@H]1[C@H](O)[C@H]1COC(C)(C)O1
  EC50: > 20 µM
  IC50: 11.2 µM

## CC(=O)Oc1c2c(c(CC=C(C)C)c3c1C(=O)C1=C[C@@H]4CC5C(C)(C)OC(C/C=C(/C)C(=O)O)(C4=O)[C@@]15O3)OC(C)(CCC=C(C)C)C=C2 (some centres undefined)
  EC50: > 2 µM
  IC50: 0.324 µM

## O=[N+]([O-])c1ccc(N=Nc2ccc3c(c2)-c2ccccc2C3=P(c2ccccc2)(c2ccccc2)c2ccccc2)cc1
  EC50: > 200 µM
  IC50: 33.1 µM

## C=CCc1ccccc1CC1(OCC)OC(=O)c2ccccc21 (centres undefined)
  EC50: > 43.7 µM
  IC50: > 43.7 µM

## c1ccc(-c2csc3[n+]2CCN3)cc1
  EC50: > 200 µM
  IC50: 126 µM

## CC(C)N1CN(C(C(=O)N[C@@H]2C(=O)N3C2SC(C)(C)C3C(=O)O)c2ccc(O)cc2)CSC1=S (some centres undefined)
  EC50: > 479 µM
  IC50: 79.4 µM

## CC1(C)C2=CCCC(=O)[C@@]2(C)CC[C@@H]1O
  outcome: inactive

## O=C(O)CCCCCCCCCC(=O)O
  EC50: > 794 µM
  IC50: > 794 µM

## Brc1ccc2nncc(N3CC3)c2c1
  outcome: inactive

## Nc1c(S(=O)(=O)O)cc2cc(S(=O)(=O)O)ccc2c1N=Nc1ccc(S(=O)(=O)c2ccc(N=Nc3c(N)c(S(=O)(=O)O)cc4cc(S(=O)(=O)O)ccc34)cc2)cc1
  EC50: > 64.6 µM
  IC50: > 64.6 µM

## CCOC(=O)Cc1nc2cc(F)c(F)cc2[nH]c1=O
  EC50: > 200 µM
  IC50: > 200 µM

## CCOC(=O)C(O)(NC(=O)c1ccccc1F)C(F)(F)F (centres undefined)
  outcome: inactive

## CC(C)[Si](Oc1cc2c3c(ccc2c(O)c1[C@@H](C)CO[Si](C)(C)C(C)(C)C)C(C)(C)CCC3)(C(C)C)C(C)C
  EC50: > 200 µM
  IC50: 40.7 µM

## Nc1nc2c(c(-c3cccc(Cl)c3)n1)COC/C2=C\c1cccc(Cl)c1
  EC50: > 200 µM
  IC50: > 200 µM

## Cn1c(O)c(/C=N/c2ncccn2)c(=O)[nH]c1=O
  EC50: > 200 µM
  IC50: > 200 µM

## O=C1c2c(O)ccc(O)c2C(=O)c2c(NCCNC(=O)C(O)C(O)C(O)C(O)CO)ccc(NCCNC(=O)C(O)C(O)C(O)C(O)CO)c21 (centres undefined)
  EC50: > 100 µM
  IC50: 0.0316 µM

## CCOC(=O)C1CCn2c(nc3c2c(=O)n(C)c(=O)n3C)S1 (centres undefined)
  outcome: inactive

## CC1=NOC(=O)/C1=C/c1ccc([N+](=O)[O-])cc1
  EC50: > 1070 µM
  IC50: 933 µM

## O=C1C(CN2CCCCC2)CCCC1CN1CCCCC1 (centres undefined)
  EC50: > 550 µM
  outcome: inactive
  IC50: 6.17 µM

## CC(=O)N1C2=CCCC2(C)c2ccccc21 (centres undefined)
  EC50: > 200 µM
  IC50: 56.2 µM

## O=[N+]([O-])c1ncn(C2OC(CO)C(O)C2O)c1S (centres undefined)
  EC50: > 200 µM
  IC50: > 200 µM

## Cc1cc(-c2ccc(N=Nc3c(N)c(S(=O)(=O)O)cc4cc(S(=O)(=O)O)ccc34)c(C)c2)ccc1N=Nc1c(N)ccc2cc(S(=O)(=O)O)ccc12
  outcome: active

## CC(=O)C1C(=O)C(=O)N(c2ccc(Cl)cc2C)C1=O (centres undefined)
  EC50: > 93.3 µM
  IC50: > 93.3 µM

## CCC(N)C(=O)NC(C(=O)NC(CC(C)C)C(=O)NC(CC(N)=O)C(=O)NC(Cc1ccccc1)C(=O)O)C(C)O (centres undefined) (H-[Abu]TLNF-OH; configuration not given here)
  outcome: inactive

## CCCCC[C@H]1CCCCCCCCCC(=O)OC2C(O[C@@H]3OC(C)[C@H](OC(=O)[C@@H](C)CC)C(O[C@@H]4OC(C)[C@H](O)C(O)[C@@H]4O)[C@@H]3OC(=O)[C@H](C)CC)[C@H](OC3C(O)[C@@H](O)C(C)O[C@H]3O1)OC(CO)[C@H]2O (some centres undefined)
  EC50: > 200 µM
  IC50: 11.2 µM

## NC1=C(O)/C(=N/NS(=O)(=O)c2ccccc2)C(c2cccc(Cl)c2)O1 (centres undefined)
  EC50: > 661 µM
  IC50: 32.4 µM

## Cc1cc(C)cc(OCC2CNC(=O)O2)c1 (centres undefined)
  EC50: > 200 µM
  IC50: > 200 µM
